Measured values published in patent publication US11964971B2, “Methods and compositions for modulating splicing” (Skyhawk Therapeutics, Inc., priority 2019, dated 2024).

Legend:
SMN protein = SMN protein assay (MSD) in SMA patient fibroblasts (GM03813); assay type: cell-based, human
Method: Compounds are tested on spinal muscular atrophy (SMA) patient fibroblasts (GM03813, Coriell) at doses ranging from 2.5 μM to 0.6 nM. 7000 cells/well are seeded in 96-well plates. Compounds are incubated for 48 hours and the cells were lysed with 100 μL of lysis buffer. 20 μL of lysate is used for SMN protein measurement by Mesoscale Discovery (MSD) assay developed by PharmOptima (Michigan). A standard curve prepared with SMN protein ranging from […] is used in each MSD plate to calculate the absolute SMN protein amount in each sample.

[1] = tested on: MDR1-MDCK cell monolayers; conditions: dog, MDCK-MDR1, 120 min, 5 μM, pH 7.4
Method: (§1) Experimental Procedure: MDR1-MDCK cell monolayers are grown to confluence on collagen-coated, microporous membranes in 12-well assay plates. The permeability assay buffer is Hanks' balanced salt solution containing 10 mM HEPES and 15 mM glucose at a pH of 7.4. The buffer in the receiver chamber also contained 1% bovine serum albumin. The dosing solution concentration is 5 μM of test article in the assay buffer. Cell monolayers are dosed on the apical side (A-to-B) or basolateral side (B-to-A) and incubated at 37° C. with 5% CO2 in a humidified incubator. Samples are taken from the donor and receiver chambers at 120 minutes. Each determination is performed in duplicate. The flux of lucifer yellow is also measured post-experimentally for each monolayer to ensure no damage was inflicted to the cell monolayers during the flux period. All samples are assayed by LC-MS/MS using electrospray ionization.
(§2) Analytical Method: Liquid Chromatography • Column: Waters ACQUITY UPLC BEH Phenyl 30×2.1 mm, 1.7 μm • M.P. Buffer: 25 mM ammonium formate buffer, pH 3.5 • Aqueous Reservoir (A): 90% water, 10% buffer • Organic Reservoir (B): 90% acetonitrile, 10% buffer • Flow Rate: 0.7 mL/minute • Gradient Program:
(§3) • Total Run Time: 1.00 minute • Autosampler: 2 μL injection volume • Wash1: water/methanol/2-propanol:1/1/1; with 0.2% formic acid • Wash2: 0.1% formic acid in water • Brain Penetration • Potential Classification: A-B Papp≥3.0 and Efflux Ratio<3.0: High • A-B Papp≥3.0 and 10>Efflux Ratio≥3.0: Moderate • A-B Papp≥3.0 and Efflux Ratio≥10: Low • A-B Papp<3.0: Low

MDR1 = test: in vitro; conditions: dog; for Papp A→B at 120 min, 5 μM: MDCK-MDR1, pH 7.4, MDCK-MDR1: Papp A-B (10^−6, cm/s); for Papp B→A at 120 min, 5 μM: MDCK-MDR1, pH 7.4, MDCK-MDR1: Papp B-A (10^−6, cm/s)
Method: as §1, §2, §3

MDR1 (P-gp) = test: MDCK-MDR1 permeability assay, blood-brain-barrier penetration potential; conditions: dog, MDCK-MDR1, pH 7.4, MDCK-MDR1 Efflux Ratio
Method: as §1, §2, §3

SMILES | EC50 (SMN protein) [nM] | MDCK-MDR1: % Recov A-B (%) [1] [%] | MDCK-MDR1: % Recov B-A (%) [1] [%] | Papp A→B at 120 min, 5 μM (MDR1) [×10⁻⁶ cm/s] | Papp B→A at 120 min, 5 μM (MDR1) [×10⁻⁶ cm/s] | efflux ratio at 120 min, 5 μM (MDR1 (P-gp))
CN(C)C(=O)c1cc(O)c(-c2cnc(N(C)[C@H]3C[C@@H]4CCC(N4)[C@H]3F)cn2)cc1F (single isomer, unassigned) [Compound 14E2] | 501 to 10000 | 87 | 88 | 0.91 | 59.1 | 65
CNC(=O)c1cc(O)c(-c2cnc(N(C)[C@@H]3CC4CC[C@H](N4)[C@@H]3F)cn2)cc1F (single isomer, unassigned) [Compound 15E1] | 501 to 10000 | 86 | 97 | 2.74 | 64.4 | 24
CNC(=O)c1cc(O)c(-c2cnc(N(C)[C@H]3C[C@@H]4CCC(N4)[C@H]3F)cn2)cc1F (single isomer, unassigned) [Compound 15E2] | 501 to 10000 | 85 | 86 | 2.66 | 68.8 | 26
CN(c1cnc(-c2cc(F)c(-c3cnn(C)c3)cc2O)cn1)[C@H]1C[C@@H]2CCC(N2)[C@H]1F (single isomer, unassigned) [Compound 17E1] | 0.01 to 15 | 31 | 74 | 4.22 | 18.6 | 4
CN(c1cnc(-c2cc3ncn(CC(F)(F)F)c(=O)c3cc2O)cn1)[C@@H]1CC2CCC[C@H](N2)[C@@H]1F (single isomer, unassigned) [Compound 18E1] | 501 to 10000 | 78 | 86 | 0.92 | 65.1 | 71
CN(c1cnc(-c2cc3ccc(OCF)nc3cc2O)cn1)[C@@H]1CC2CC[C@H](N2)[C@@H]1F (single isomer, unassigned) [Compound 19E1] | 501 to 10000 | 24 | 57 | 2.13 | 18.6 | 9
CN(c1cnc(-c2cc3ccc(OCF)nc3cc2O)cn1)[C@H]1C[C@@H]2CCC(N2)[C@H]1F (single isomer, unassigned) [Compound 19E2] | 501 to 10000 | 28 | 62 | 2.81 | 17.1 | 6
CN(c1cnc(-c2cc3oc(C(=O)N4CCC4)cc3cc2O)cn1)[C@@H]1CC2CC[C@H](N2)[C@@H]1F (single isomer, unassigned) [Compound 20E1] | 501 to 10000 | 83 | 101 | 2.71 | 56.4 | 21
CN(c1cnc(-c2cc3oc(C(=O)N4CCC4)cc3cc2O)cn1)[C@H]1C[C@@H]2CCC(N2)[C@H]1F (single isomer, unassigned) [Compound 20E2] | 501 to 10000 | 75 | 79 | 0.94 | 41.9 | 45
CN(c1cnc(-c2cc(F)c(-n3ccnn3)cc2O)cn1)[C@@H]1CC2CC[C@H](N2)[C@@H]1F (single isomer, unassigned) [Compound 21E1] | 501 to 10000 | 83 | 91 | 8.48 | 43.5 | 5
CN(c1cnc(-c2cc(F)c(-n3ccnn3)cc2O)cn1)[C@H]1C[C@@H]2CCC(N2)[C@H]1F (single isomer, unassigned) [Compound 21E2] | 501 to 10000 | 78 | 85 | 11.3 | 48 | 4
CN(c1cnc(-c2ccc(-c3cn[nH]c3)cc2O)cn1)[C@@H]1CC2CC[C@H](N2)[C@H]1F (single isomer, unassigned) [Compound 27E1] | 501 to 10000 | 77 | 79 | 3.87 | 28.7 | 7
CN(c1cnc(-c2cc(F)c(-c3cnn(CF)c3)cc2O)cn1)[C@@H]1CC2CC[C@H](N2)[C@@H]1F (single isomer, unassigned) [Compound 29E1] | 16 to 50 | 38 | 56 | 6.29 | 17.2 | 3
COc1cc(-c2cc(O)c(-c3cnc(N(C)[C@@H]4CC5CC[C@H](N5)[C@@H]4F)cn3)cc2F)ccn1 (single isomer, unassigned) [Compound 30E1] | 501 to 10000 | 13 | 49 | 3.95 | 5.24 | 1
COc1cc(-c2cc(O)c(-c3cnc(N(C)[C@H]4C[C@@H]5CCC(N5)[C@H]4F)cn3)cc2F)ccn1 (single isomer, unassigned) [Compound 30E2] | 51 to 100 | 10 | 37 | 2.55 | 4.14 | 2
COc1cc(-c2cc(O)c(-c3cnc(N(C)[C@@H]4CC5CC[C@H](N5)[C@@H]4F)cn3)cc2F)cc(F)n1 (single isomer, unassigned) [Compound 31E1] | 501 to 10000 | 58 | 65 | 0.48 | 0.8 | 2
COc1cc(-c2cc(O)c(-c3cnc(N(C)[C@H]4C[C@@H]5CCC(N5)[C@H]4F)cn3)cc2F)cc(F)n1 (single isomer, unassigned) [Compound 31E2] | 16 to 50 | 59 | 67 | 0.33 | 0.5 | 2
CN(c1cnc(-c2cc(F)c(-c3ccn(CF)c(=O)c3)cc2O)cn1)[C@H]1C[C@@H]2CCC(N2)[C@H]1F (single isomer, unassigned) [Compound 32E2] | 16 to 50 | 86 | 88 | 2.58 | 51.2 | 20
CN(c1cnc(-c2cc(F)c(-c3cc(=O)n(C)cn3)cc2O)cn1)[C@H]1C[C@@H]2CCC(N2)[C@H]1F (single isomer, unassigned) [Compound 33E2] | 501 to 10000 | 91 | 99 | 3.5 | 62.7 | 18
Cn1cc(-c2cc(O)c(-c3cnc(N(C4CC4)[C@H]4C[C@@H]5CCC(N5)[C@H]4F)cn3)cc2F)cn1 (single isomer, unassigned) [Compound 35E2] | 501 to 10000 | 32 | 61 | 4.64 | 17.9 | 4
COc1cc(-c2cc(O)c(-c3cnc(N(C4CC4)[C@@H]4CC5CC[C@H](N5)[C@@H]4F)cn3)cc2F)ccn1 (single isomer, unassigned) [Compound 36E1] | 501 to 10000 | 8 | 37 | 0.52 | 1.41 | 3
